Assay results reported in publication PMC7347136 (PLoS ONE, 2020).

Tests used:
Assay in all cases: Carna kinase panel screen
Assay type in all cases: biochemical
Details in all cases: read-out: % Inhibition ± SD
CDK5 = target: T1, CDK5 (Homo sapiens, UniProt Q00535)
T1 construct: purchased Carna Biosciences
How it was run: (§1)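 With ATP concentrations near the respective Km, a 10-point titration of each compound was run. Percent inhibition values were fitted (four-parameter logistic) to determine IC50.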

MAPKAPK3 = target: T2, MAPKAPK3 (Homo sapiens, UniProt Q16644)
T2 construct: purchased Carna Biosciences
How it was run: as §1

Erk2 = target: T3, Erk2 (Homo sapiens, UniProt P28482)
T3 construct: purchased Carna Biosciences
How it was run: as §1

PIM2 = target: T4, PIM2 (Homo sapiens, UniProt Q9P1W9)
T4 construct: purchased Carna Biosciences
How it was run: as §1

PKCd = target: T5, PKCd (Homo sapiens, UniProt Q05655)
T5 construct: purchased Carna Biosciences
How it was run: as §1

FLT1 = target: T6, FLT1 (Homo sapiens, UniProt P17948)
T6 construct: purchased Carna Biosciences
How it was run: as §1

HCK = target: T7, HCK (Homo sapiens, UniProt P08631)
T7 construct: purchased Carna Biosciences
How it was run: as §1

MAP3K5 = target: T8, MAP3K5 (Homo sapiens, UniProt Q99683)
T8 construct: purchased Carna Biosciences
How it was run: as §1

EGFR[T790M] = target: T9, EGFR[T790M] (Homo sapiens, UniProt P00533, T790M)
T9 construct: purchased Carna Biosciences
T9 sequence (P00533 25-1210 T790M): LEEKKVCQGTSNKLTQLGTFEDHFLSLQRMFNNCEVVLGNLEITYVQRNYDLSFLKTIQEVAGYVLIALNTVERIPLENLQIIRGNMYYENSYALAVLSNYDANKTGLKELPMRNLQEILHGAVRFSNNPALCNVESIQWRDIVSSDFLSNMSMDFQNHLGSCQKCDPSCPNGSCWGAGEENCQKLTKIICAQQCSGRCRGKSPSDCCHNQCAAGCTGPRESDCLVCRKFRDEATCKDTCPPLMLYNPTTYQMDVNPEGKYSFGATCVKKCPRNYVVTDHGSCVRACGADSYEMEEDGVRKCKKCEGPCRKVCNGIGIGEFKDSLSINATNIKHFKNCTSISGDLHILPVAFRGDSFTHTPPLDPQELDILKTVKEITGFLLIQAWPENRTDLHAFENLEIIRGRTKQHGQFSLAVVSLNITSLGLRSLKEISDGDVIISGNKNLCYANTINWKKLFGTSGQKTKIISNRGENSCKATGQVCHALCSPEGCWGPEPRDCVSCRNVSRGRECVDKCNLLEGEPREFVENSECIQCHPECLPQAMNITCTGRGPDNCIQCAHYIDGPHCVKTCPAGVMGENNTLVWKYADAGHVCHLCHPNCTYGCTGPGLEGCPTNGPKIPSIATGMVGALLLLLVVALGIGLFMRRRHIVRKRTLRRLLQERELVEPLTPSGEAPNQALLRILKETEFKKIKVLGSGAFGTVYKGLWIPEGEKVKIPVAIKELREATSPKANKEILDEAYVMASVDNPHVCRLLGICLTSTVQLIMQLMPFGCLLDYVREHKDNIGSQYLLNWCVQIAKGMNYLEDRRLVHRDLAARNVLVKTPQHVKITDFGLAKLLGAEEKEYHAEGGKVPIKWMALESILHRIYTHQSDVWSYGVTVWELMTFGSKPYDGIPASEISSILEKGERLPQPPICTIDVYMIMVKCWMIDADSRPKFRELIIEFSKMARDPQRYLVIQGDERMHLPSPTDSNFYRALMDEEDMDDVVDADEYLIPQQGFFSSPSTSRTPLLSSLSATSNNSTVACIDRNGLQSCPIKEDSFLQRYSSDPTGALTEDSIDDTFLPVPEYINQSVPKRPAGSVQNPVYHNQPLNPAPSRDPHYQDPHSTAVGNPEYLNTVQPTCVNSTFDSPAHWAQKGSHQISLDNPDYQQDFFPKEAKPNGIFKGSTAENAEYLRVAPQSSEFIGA
How it was run: as §1

SLK = target: T10, SLK (Homo sapiens, UniProt Q9H2G2)
T10 construct: purchased Carna Biosciences
How it was run: as §1

p38g = target: T11, p38g (Homo sapiens, UniProt P53778)
T11 construct: purchased Carna Biosciences
How it was run: as §1

EphA5 = target: T12, EphA5 (Homo sapiens, UniProt P54756)
T12 construct: purchased Carna Biosciences
How it was run: as §1

BRSK1 = target: T13, BRSK1 (Homo sapiens, UniProt Q8TDC3)
T13 construct: purchased Carna Biosciences
How it was run: as §1

CaMK2a = target: T14, CaMK2a (Homo sapiens, UniProt Q9UQM7)
T14 construct: purchased Carna Biosciences
T14 sequence (Q9UQM7 whole entry): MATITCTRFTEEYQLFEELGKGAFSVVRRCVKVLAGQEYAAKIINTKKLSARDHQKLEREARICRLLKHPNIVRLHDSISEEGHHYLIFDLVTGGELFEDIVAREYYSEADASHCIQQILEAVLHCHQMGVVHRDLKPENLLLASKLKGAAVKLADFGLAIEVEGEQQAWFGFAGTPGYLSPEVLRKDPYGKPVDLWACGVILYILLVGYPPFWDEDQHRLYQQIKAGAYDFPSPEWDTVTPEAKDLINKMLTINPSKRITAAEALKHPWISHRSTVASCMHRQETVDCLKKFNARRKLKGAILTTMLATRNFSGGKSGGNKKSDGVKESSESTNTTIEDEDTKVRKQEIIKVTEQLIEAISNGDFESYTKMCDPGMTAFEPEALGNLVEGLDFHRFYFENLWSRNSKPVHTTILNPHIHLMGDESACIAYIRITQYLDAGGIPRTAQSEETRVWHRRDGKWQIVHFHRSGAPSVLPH
How it was run: (§2)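 10-pt curves; [ATP] ~Km; IC50 by 4PL fit of % inhibition.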

MET[Y1235D] = target: T15, MET[Y1235D] (Homo sapiens, UniProt P08581, Y1235D)
T15 construct: purchased Carna Biosciences
How it was run: as §1

AKT3 = target: T16, AKT3 (Homo sapiens, UniProt Q9Y243)
T16 construct: purchased Carna Biosciences
T16 sequence (Q9Y243 whole entry): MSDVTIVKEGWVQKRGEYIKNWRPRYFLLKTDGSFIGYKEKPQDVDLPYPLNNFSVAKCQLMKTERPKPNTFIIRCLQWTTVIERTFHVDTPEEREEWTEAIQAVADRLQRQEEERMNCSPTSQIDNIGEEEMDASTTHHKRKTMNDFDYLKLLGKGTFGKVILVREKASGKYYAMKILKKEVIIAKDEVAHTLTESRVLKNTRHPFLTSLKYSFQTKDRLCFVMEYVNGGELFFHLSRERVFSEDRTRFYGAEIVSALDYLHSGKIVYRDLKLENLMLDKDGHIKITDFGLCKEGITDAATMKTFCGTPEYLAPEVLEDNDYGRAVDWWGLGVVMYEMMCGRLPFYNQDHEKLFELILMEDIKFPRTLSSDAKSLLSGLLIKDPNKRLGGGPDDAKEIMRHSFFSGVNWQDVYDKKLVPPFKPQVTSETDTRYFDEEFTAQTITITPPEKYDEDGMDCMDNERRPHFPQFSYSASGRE
How it was run: as §1

MST1 = target: T17, MST1 (Homo sapiens, UniProt Q13043)
T17 construct: purchased Carna Biosciences
How it was run: as §1

IRR = target: T18, IRR (Homo sapiens, UniProt P14616)
T18 construct: purchased Carna Biosciences
How it was run: as §2

ROCK1 = target: T19, ROCK1 (Homo sapiens, UniProt Q13464)
T19 construct: purchased Carna Biosciences
How it was run: as §1

ABL[T315I] = target: T20, ABL[T315I] (Homo sapiens, UniProt P00519, T315I)
T20 construct: purchased Carna Biosciences
How it was run: as §1

LYNb = target: T21, LYNb (Homo sapiens, UniProt P07948)
T21 construct: purchased Carna Biosciences
T21 sequence (P07948 1-491 isoform P07948-2): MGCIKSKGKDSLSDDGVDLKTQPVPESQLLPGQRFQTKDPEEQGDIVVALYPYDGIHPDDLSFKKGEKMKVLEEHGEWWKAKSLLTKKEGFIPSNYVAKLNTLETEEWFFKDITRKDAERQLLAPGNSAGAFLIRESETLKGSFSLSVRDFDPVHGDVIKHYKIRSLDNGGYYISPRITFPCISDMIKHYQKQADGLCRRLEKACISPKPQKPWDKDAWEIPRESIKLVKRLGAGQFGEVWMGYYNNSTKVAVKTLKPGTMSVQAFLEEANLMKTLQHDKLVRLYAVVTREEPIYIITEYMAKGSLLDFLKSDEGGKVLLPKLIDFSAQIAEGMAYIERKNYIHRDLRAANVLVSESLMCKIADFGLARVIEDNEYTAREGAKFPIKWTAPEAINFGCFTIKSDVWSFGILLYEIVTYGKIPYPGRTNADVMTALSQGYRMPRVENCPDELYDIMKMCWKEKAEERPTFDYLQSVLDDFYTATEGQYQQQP
How it was run: as §1

PKCq = target: T22, PKCq (Homo sapiens, UniProt Q04759)
T22 construct: purchased Carna Biosciences
How it was run: as §1

MNK1 = target: T23, MNK1 (Homo sapiens, UniProt Q9BUB5)
T23 construct: purchased Carna Biosciences
How it was run: as §1

HIPK1 = target: T24, HIPK1 (Homo sapiens, UniProt Q86Z02)
T24 construct: purchased Carna Biosciences
T24 sequence (Q86Z02 whole entry): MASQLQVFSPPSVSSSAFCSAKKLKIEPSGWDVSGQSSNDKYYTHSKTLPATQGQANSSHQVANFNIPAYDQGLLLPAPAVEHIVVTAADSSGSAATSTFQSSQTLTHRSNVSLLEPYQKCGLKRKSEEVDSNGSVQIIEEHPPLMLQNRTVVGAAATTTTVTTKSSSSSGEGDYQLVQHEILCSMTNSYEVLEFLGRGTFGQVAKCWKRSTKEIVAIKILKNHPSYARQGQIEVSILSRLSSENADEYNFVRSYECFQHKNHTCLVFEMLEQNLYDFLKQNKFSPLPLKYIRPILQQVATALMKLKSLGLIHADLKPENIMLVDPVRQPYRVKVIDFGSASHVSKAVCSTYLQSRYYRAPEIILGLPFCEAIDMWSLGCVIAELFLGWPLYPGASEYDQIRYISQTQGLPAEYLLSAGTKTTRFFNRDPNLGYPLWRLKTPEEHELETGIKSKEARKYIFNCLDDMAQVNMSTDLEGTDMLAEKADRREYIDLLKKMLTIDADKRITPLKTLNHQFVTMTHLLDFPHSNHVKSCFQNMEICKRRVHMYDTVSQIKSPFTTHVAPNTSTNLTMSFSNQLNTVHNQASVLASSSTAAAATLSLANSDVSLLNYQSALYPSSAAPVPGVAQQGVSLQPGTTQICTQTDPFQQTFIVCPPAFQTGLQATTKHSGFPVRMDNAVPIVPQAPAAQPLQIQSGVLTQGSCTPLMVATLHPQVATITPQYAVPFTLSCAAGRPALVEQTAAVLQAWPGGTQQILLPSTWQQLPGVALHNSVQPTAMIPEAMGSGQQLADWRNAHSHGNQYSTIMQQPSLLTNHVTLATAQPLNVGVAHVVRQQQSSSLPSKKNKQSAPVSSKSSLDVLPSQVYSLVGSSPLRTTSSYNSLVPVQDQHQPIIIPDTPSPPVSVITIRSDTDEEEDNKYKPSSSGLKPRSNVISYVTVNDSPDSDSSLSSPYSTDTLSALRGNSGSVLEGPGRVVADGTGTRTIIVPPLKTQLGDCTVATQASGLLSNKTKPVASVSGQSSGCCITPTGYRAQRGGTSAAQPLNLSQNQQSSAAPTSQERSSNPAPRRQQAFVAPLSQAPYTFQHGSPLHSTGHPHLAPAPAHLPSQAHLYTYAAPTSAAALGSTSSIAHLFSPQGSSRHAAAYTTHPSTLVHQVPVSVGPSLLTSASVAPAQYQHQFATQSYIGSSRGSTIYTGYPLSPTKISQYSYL
How it was run: as §1

MGC42105 = target: T25, MGC42105 (Homo sapiens, UniProt Q8IY84)
T25 construct: purchased Carna Biosciences
T25 sequence (Q8IY84 whole entry): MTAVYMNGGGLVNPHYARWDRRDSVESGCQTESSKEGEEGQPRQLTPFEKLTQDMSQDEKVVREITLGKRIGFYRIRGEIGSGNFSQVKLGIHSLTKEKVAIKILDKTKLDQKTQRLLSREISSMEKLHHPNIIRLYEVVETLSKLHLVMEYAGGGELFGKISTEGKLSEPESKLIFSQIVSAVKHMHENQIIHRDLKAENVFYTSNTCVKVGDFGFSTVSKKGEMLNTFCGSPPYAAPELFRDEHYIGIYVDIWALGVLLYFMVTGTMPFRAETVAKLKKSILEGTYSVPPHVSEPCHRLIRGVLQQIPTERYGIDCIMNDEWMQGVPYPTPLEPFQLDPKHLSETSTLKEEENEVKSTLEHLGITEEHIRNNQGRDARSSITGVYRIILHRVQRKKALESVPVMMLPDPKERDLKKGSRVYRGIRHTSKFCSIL
How it was run: as §2

MAP3K2 = target: T26, MAP3K2 (Homo sapiens, UniProt Q9Y2U5)
T26 construct: purchased Carna Biosciences
How it was run: as §1

MAP3K3 = target: T27, MAP3K3 (Homo sapiens, UniProt Q99759)
T27 construct: purchased Carna Biosciences
How it was run: as §1

INSR = target: T28, INSR (Homo sapiens, UniProt P06213)
T28 construct: purchased Carna Biosciences
How it was run: as §1

SRPK2 = target: T29, SRPK2 (Homo sapiens, UniProt P78362)
T29 construct: purchased Carna Biosciences
How it was run: as §2

MLK3 = target: T30, MLK3 (Homo sapiens, UniProt Q16584)
T30 construct: purchased Carna Biosciences
How it was run: as §1

FAK = target: T31, FAK (Homo sapiens, UniProt Q05397)
T31 construct: purchased Carna Biosciences
How it was run: as §1

ALK = target: T32, ALK (Homo sapiens, UniProt Q9UM73)
T32 construct: purchased Carna Biosciences
How it was run: as §1

TIE2 = target: T33, TIE2 (Homo sapiens, UniProt Q02763)
T33 construct: purchased Carna Biosciences
How it was run: as §2

Erk5 = target: T34, Erk5 (Homo sapiens, UniProt Q13164)
T34 construct: purchased Carna Biosciences
How it was run: as §1

EphB1 = target: T35, EphB1 (Homo sapiens, UniProt P54762)
T35 construct: purchased Carna Biosciences
How it was run: as §1

p70S6Kb = target: T36, p70S6Kb (Homo sapiens, UniProt Q9UBS0)
T36 construct: purchased Carna Biosciences
T36 sequence (Q9UBS0 whole entry): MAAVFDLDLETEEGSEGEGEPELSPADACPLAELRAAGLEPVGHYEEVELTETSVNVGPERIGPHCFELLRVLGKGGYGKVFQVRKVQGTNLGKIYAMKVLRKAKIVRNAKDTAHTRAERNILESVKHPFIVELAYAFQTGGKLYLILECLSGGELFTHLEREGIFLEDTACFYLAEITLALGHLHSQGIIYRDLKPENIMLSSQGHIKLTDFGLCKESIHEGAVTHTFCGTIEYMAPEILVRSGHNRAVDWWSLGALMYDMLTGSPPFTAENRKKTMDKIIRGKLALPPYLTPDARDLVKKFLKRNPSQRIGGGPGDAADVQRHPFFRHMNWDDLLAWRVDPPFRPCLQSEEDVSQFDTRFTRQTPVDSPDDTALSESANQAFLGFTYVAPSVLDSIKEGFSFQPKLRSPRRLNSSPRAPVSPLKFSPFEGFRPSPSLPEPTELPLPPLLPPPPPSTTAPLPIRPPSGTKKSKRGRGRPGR
How it was run: as §1

CaMK4 = target: T37, CaMK4 (Homo sapiens, UniProt Q16566)
T37 construct: purchased Carna Biosciences
How it was run: as §1

TYRO3 = target: T38, TYRO3 (Homo sapiens, UniProt Q06418)
T38 construct: purchased Carna Biosciences
How it was run: as §1

TRKC = target: T39, TRKC (Homo sapiens, UniProt Q16288)
T39 construct: purchased Carna Biosciences
How it was run: as §1

KDR = target: T40, KDR (Homo sapiens, UniProt P35968)
T40 construct: purchased Carna Biosciences
How it was run: as §1

MAPKAPK5 = target: T41, MAPKAPK5 (Homo sapiens, UniProt Q8IW41)
T41 construct: purchased Carna Biosciences
How it was run: as §1

CK1d = target: T42, CK1d (Homo sapiens, UniProt P48730)
T42 construct: purchased Carna Biosciences
How it was run: as §2

PKD3 = target: T43, PKD3 (Homo sapiens, UniProt O94806)
T43 construct: purchased Carna Biosciences
How it was run: as §1

Molecule CC[C@H](Nc1nc(NCc2cnc(C)cc2C)c2ncn(C(C)C)c2n1)[C@@H](C)O [Fadraciclib, 2-pentanol, 3-[[6-[[(4,6-dimethyl-3-pyridinyl)methyl]amino]-9-(1-methylethyl)-9Hpurin-2-yl]amino]-, (2R,3S)] has an inhibition at 1 µM (CDK5) of 98.1 ± 4%, an inhibition at 1 µM (MAPKAPK3) of -6.1 ± 0.3% and an inhibition at 1 µM (Erk2) of 19.6 ± 0.8%. For the same molecule, the inhibition at 1 µM (PIM2) was 2.9 ± 0.2%, the inhibition at 1 µM (PKCd) was 28.7 ± 2.7% and the inhibition at 1 µM (FLT1) was 1.9%. It also gave an inhibition at 1 µM (HCK) of -4.9 ± 0.1%, an inhibition at 1 µM (MAP3K5) of 5.2 ± 0.2% and an inhibition at 1 µM (EGFR[T790M]) of -9.6 ± 0.1%. The inhibition at 1 µM (SLK) was 2.5 ± 0.1%, the inhibition at 1 µM (p38g) was -0.6% and the inhibition at 1 µM (EphA5) was 4.9 ± 0.2%. It also gave an inhibition at 1 µM (BRSK1) of -11.5 ± 0.1%, an inhibition at 1 µM (CaMK2a) of -3.6 ± 0.1% and an inhibition at 1 µM (MET[Y1235D]) of 2.4 ± 0.1%. For the same molecule, the inhibition at 1 µM (AKT3) was 2.4 ± 0.3%, the inhibition at 1 µM (MST1) was 4 ± 0.1% and the inhibition at 1 µM (IRR) was -5.5%. The inhibition at 1 µM (ROCK1) was -1.3%, the inhibition at 1 µM (ABL[T315I]) was -13 ± 0.1% and the inhibition at 1 µM (LYNb) was -8.7 ± 0.1%. The inhibition at 1 µM (PKCq) was 0.7%, the inhibition at 1 µM (MNK1) was -13.1 ± 1.6% and the inhibition at 1 µM (HIPK1) was 6.8 ± 0.3%. The inhibition at 1 µM (MGC42105) was -7.3 ± 0.1%, the inhibition at 1 µM (MAP3K2) was -14.7 ± 0.8% and the inhibition at 1 µM (MAP3K3) was -2.6 ± 0.1%. The inhibition at 1 µM (INSR) was -12.2 ± 0.8%, the inhibition at 1 µM (SRPK2) was -3.8 ± 0.1% and the inhibition at 1 µM (MLK3) was -4.9 ± 0.4%. The inhibition at 1 µM (FAK) was 23.4 ± 2.9%, the inhibition at 1 µM (ALK) was -9 ± 0.3% and the inhibition at 1 µM (TIE2) was 2.9 ± 0.2%. For the same molecule, the inhibition at 1 µM (Erk5) was 3.7 ± 0.1%, the inhibition at 1 µM (EphB1) was 3.9 ± 0.1% and the inhibition at 1 µM (p70S6Kb) was 1.9%. For the same molecule, the inhibition at 1 µM (CaMK4) was -4.8 ± 0.1%, the inhibition at 1 µM (TYRO3) was -14.8 ± 0.2% and the inhibition at 1 µM (TRKC) was 7.2 ± 0.3%. It also gave an inhibition at 1 µM (KDR) of -12.8 ± 0.1%, an inhibition at 1 µM (MAPKAPK5) of -14.5 ± 0.2% and an inhibition at 1 µM (CK1d) of 13.8 ± 0.4%. The inhibition at 1 µM (PKD3) was -1.4%.
